The text below walks through data of patent publication US20160135455A1, “SAFENED HERBICIDAL COMPOSITIONS COMPRISING PYRIDINE CARBOXYLIC ACIDS” (Dow AgroSciences LLC, priority 2014, published 2016).

What all share (assay type): in vivo
Data set [1] relates to winter rape (BRSNW, Brassica napus). Briefly: Postemergence greenhouse trial, herbicidal efficacy on winter rape. The note with it: post-emergence, 528 h, applied alone at 35 g/ha, postemergence. The procedure: (§1) Seeds of the desired test plant species were planted in Sun Gro MetroMix® 306 planting mixture, which typically has a pH of 6.0 to 6.8 and an organic matter content of about 30 percent, in plastic pots with a surface area of 103.2 square centimeters (cm^2). When required to ensure good germination and healthy plants, a fungicide treatment and/or other chemical or physical treatment was applied. The plants were grown for 7-36 days (d) in a greenhouse with an approximate 14-hour (h) photoperiod which was maintained at about 23° C. during the day and 22° C. during the night. Nutrients and water were added on a regular basis and supplemental lighting was provided with overhead metal halide 1000-Watt lamps as necessary. The plants were employed for testing when they reached the second or third true leaf stage.
(§2) Weighed amounts of technical material were dissolved in a volume of 97:3 volume per volume (v/v) acetone/dimethyl sulfoxide (DMSO) to stock solutions. […] The concentrated stock solutions were diluted with an aqueous mixture of 1.5% v/v of Agri-dex crop oil concentrate to provide the appropriate application rates. Compound requirements are based upon a 12 milliliter (mL) application volume at a rate of 187 liters per hectare (L/ha). Stocks solutions of the safeners were prepared following the same procedure. Spray solutions of the safeners and experimental compound mixtures were prepared by adding the stock solutions to the appropriate amount of dilution solution to form a 12 mL spray solution in two-way combinations. Formulated compounds were applied to the plant material with an overhead Mandel track sprayer equipped with 8002E nozzles calibrated to deliver 187 L/ha over an application area of 0.503 square meters (m^2) at a spray height of 18 inches (43 centimeters (cm)) above average plant canopy. Control plants were sprayed in the same manner with the solvent blank. All herbicide application (component a) rates are in g ae/ha and all safener (component b) rates are in g ai/ha.
(§3) The treated plants and control plants were placed in a greenhouse as described above and watered by sub-irrigation to prevent wash-off of the test compounds. After 20-22 d, the condition of the test plants as compared with that of the control plants was determined visually and scored on a scale of 0 to 100 percent where 0 corresponds to no injury and 100 corresponds to complete kill. The condition of the test plants was compared with that of the control plants as determined visually and scored on a scale of 0 to 100 percent, where 0 corresponds to no injury and 100 corresponds to complete kill. Colby's equation was used to determine the herbicidal effects expected from the mixtures.

Data set [2] has as its system thistle (CIRAR, Cirsium arvense). Description: Postemergence greenhouse trial, herbicidal efficacy on thistle. The note with it: post-emergence, 528 h, applied alone at 35 g/ha, postemergence. The procedure:
as §1, §2, §3

Data set [3] concerns poinsettia (EPHHL, Euphorbia heterophylla). Description: Postemergence greenhouse trial, herbicidal efficacy on poinsettia. Conditions: applied alone at 35 g/ha, postemergence; for Obs, % visual injury, EPHHL: scored 20-22 d; for pest or weed control at 35 g/ha: Euphorbia heterophylla, post-emergence, 528 h, rated after 20-22 d, read-out: % visual injury, Obs, EPHHL. The procedure:
as §1, §2, §3

The subject of data set [4] is lambsquarters (CHEAL, Chenopodium album). Briefly: Postemergence greenhouse trial, herbicidal efficacy on lambsquarters. The note with it: post-emergence, 528 h, applied alone at 35 g/ha, postemergence. The procedure:
as §1, §2, §3

Data set [5] concerns pigweed (AMARE, Amaranthus retroflexus). Description: Postemergence greenhouse trial, herbicidal efficacy on pigweed. Conditions: post-emergence, 528 h, applied alone at 35 g/ha, postemergence. The procedure:
as §1, §2, §3

Data set [6] deals with wheat (TRZAS), Triticum aestivum (spring wheat). Briefly: Postemergence greenhouse trial, crop injury (phytotoxicity/safening) on wheat. Conditions: applied alone at 35 g/ha, scored 20-22 d, 0 = no injury, 100 = complete kill. On the procedure:
as §1, §2, §3
The safener fenchlorazole-ethyl was combined with compound 1, compound 2, compound 3, compound 4, compound 5, and compound 6, and applied to wheat (TRZAS), and the phytotoxicity of the herbicidal compositions was measured. In addition, the efficacy of the herbicidal composition on velvetleaf (ABUTH, Abutilon theophrasti), pigweed (AMARE, Amaranthus retroflexus), winter rape (BRSNW, Brassica napus), lambsquarters (CHEAL, Chenopodium album), thistle (CIRAR, Cirsium arvense), nutsedge (CYPES, Cyperus esculentus), poinsettia (EPHHL, Euphorbia heterophylla), wild buckwheat (POLCO, Polygonum convolvulus), giant foxtail (SETFA, Setaria faberi), sorghum (SORVU, Sorghum bicolor), chickweed (STEME, Stellaria media), and wild pansy (VIOTR, Viola tricolor) was evaluated.
The safener isoxadifen-ethyl was combined with compound 1, compound 2, compound 3, compound 4, compound 5, and compound 6, and applied to wheat (TRZAS), and the phytotoxicity of the herbicidal compositions was measured. […]

In data set [7] the test system is wild buckwheat (POLCO, Polygonum convolvulus). Description: Postemergence greenhouse trial, herbicidal efficacy on wild buckwheat. Conditions: Fallopia convolvulus, post-emergence, 528 h, applied alone at 35 g/ha, postemergence. The procedure: as §1, §2, §3
For data set [8], the system named is velvetleaf (ABUTH, Abutilon theophrasti). Briefly: Postemergence greenhouse trial, herbicidal efficacy on velvetleaf. Conditions: post-emergence, 528 h, applied alone at 35 g/ha, postemergence. The procedure: as §1, §2, §3
Data set [9] has as its system chickweed (STEME, Stellaria media). Description: Postemergence greenhouse trial, herbicidal efficacy on chickweed. Conditions: post-emergence, 528 h, applied alone at 35 g/ha, postemergence. The procedure:
as §1, §2, §3

Data set [10] relates to wild pansy (VIOTR, Viola tricolor). Briefly: Postemergence greenhouse trial, herbicidal efficacy on wild pansy. The note with it: applied alone at 35 g/ha, postemergence; for pest or weed control at 35 g/ha: Viola tricolor, post-emergence, 528 h, scored 20-22 d, read-out: Obs, % visual injury, VIOTR; for % visual injury, Obs, VIOTR: rated after 20-22 d. On the procedure: as §1, §2, §3

In data set [11] the test system is sorghum (SORVU, Sorghum bicolor). Briefly: Postemergence greenhouse trial, herbicidal efficacy on sorghum. The note with it: applied alone at 35 g/ha; for Obs, % visual injury, SORVU: scored 20-22 d. The procedure:
as §1, §2, §3

Data set [12] relates to nutsedge (CYPES, Cyperus esculentus). Briefly: Postemergence greenhouse trial, herbicidal efficacy on nutsedge. Conditions: applied alone at 35 g/ha. On the procedure:
as §1, §2, §3

Data set [13] deals with giant foxtail (SETFA, Setaria faberi). Description: Postemergence greenhouse trial, herbicidal efficacy on giant foxtail. The note with it: applied alone at 35 g/ha. On the procedure:
as §1, §2, §3

The mark [14] stands for this setting: scored 20-22 d, read-out: Obs, % visual injury, BRSNW.
Where [15] appears, read: scored 20-22 d, read-out: Obs, % visual injury, CIRAR.
Setting [16] is: scored 20-22 d, read-out: Obs, % visual injury, CHEAL.
The mark [17] stands for this setting: scored 20-22 d, read-out: Obs, % visual injury, AMARE.
Where [18] appears, read: scored 20-22 d, read-out: Obs, % visual injury, POLCO.
Setting [19] is: scored 20-22 d, read-out: Obs, % visual injury, ABUTH.
The mark [20] stands for this setting: rated after 20-22 d, read-out: % visual injury, Obs, STEME.
Where [21] appears, read: scored 20-22 d, read-out: Obs, % visual injury, STEME.
Where [22] appears, read: rated after 20-22 d, read-out: % visual injury, Obs, BRSNW.
Where [23] appears, read: rated after 20-22 d, read-out: % visual injury, Obs, CIRAR.
Where [24] appears, read: rated after 20-22 d, read-out: % visual injury, Obs, CHEAL.
[25] abbreviates: rated after 20-22 d, read-out: % visual injury, Obs, AMARE.
Setting [26] is: rated after 20-22 d, read-out: % visual injury, Obs, POLCO.
Where [27] appears, read: rated after 20-22 d, read-out: % visual injury, Obs, ABUTH.

Each structure is given as a SMILES string. Where two headings read alike, the source gives them in different places.

Consider `COC(=O)c1nc(-c2ccc3ccn(C(C)=O)c3c2F)c(F)c(N)c1Cl` [compound 3], for which the plant injury at 35 g/ha in data set [1] (setting [14]) was found to be 30%. Moreover, the pest or weed control at 35 g/ha in data set [2] (setting [15]) is 50%; in data set [4] (setting [16]) it was 85%; in data set [5] (setting [17]), 75%; in data set [7] (setting [18]), 97%; in data set [8] (setting [19]), 50%. Besides, the “Obs, % visual injury, EPHHL” value in data set [3] is 100%. Further, the “Obs, % visual injury, TRZAS” value in data set [6] is reported as 30%.

As for `Nc1c(F)c(-c2ccc3cc[nH]c3c2F)nc(C(=O)O)c1Cl` [compound 1], the pest or weed control at 35 g/ha in data set [9] (setting [20]) was 100%; in [9] (setting [21]), 100%; in data set [2] (setting [23]) it was 90%; in data set [2] (setting [15]), 90%; in [3], 100%; in data set [4] (setting [24]), 100%. For the same compound, the pest or weed control at 35 g/ha in data set [4] (setting [16]) worked out at 100%; in data set [5] (setting [25]) it was 100%; in data set [5] (setting [17]) it was 100%; in data set [7] (setting [26]), 99%; in data set [7] (setting [18]), 99%; in data set [8] (setting [27]), 85%. Moreover, the results for the pest or weed control at 35 g/ha in data set [8] (setting [19]) and in data set [10] were 85% and 64%, respectively. The plant injury at 35 g/ha in data set [1] (setting [22]) and in data set [1] (setting [14]) was 99% throughout. Also, the “Obs, % visual injury, EPHHL” value in data set [3] is given as 100%. Further, the “% visual injury, Obs, VIOTR” value in [10] turned out to be 64%.

Take `Nc1c(F)c(-c2ccc3cc[nH]c3c2F)nc(C(=O)OCc2ccccc2)c1Cl` [compound 2]: the pest or weed control at 35 g/ha was found to be 100% in [9] (setting [20]); 100% in data set [9] (setting [21]); 70% in data set [2] (setting [23]); 70% in [2] (setting [15]); 100% in [3]; 97% in data set [4] (setting [24]). For the same compound, the pest or weed control at 35 g/ha was found to be 97% in [4] (setting [16]); 100% in [5] (setting [25]); 100% in data set [5] (setting [17]); 100% in data set [7] (setting [26]); 100% in data set [7] (setting [18]); 80% in [8] (setting [27]). In data set [10], the pest or weed control at 35 g/ha is 40%. The plant injury at 35 g/ha in data set [1] (setting [22]) and in data set [1] (setting [14]) was 100% throughout. For the same compound, the “Obs, % visual injury, SORVU” value in data set [11] stood at 70%. Also, the “% visual injury, Obs, VIOTR” value in [10] came out at 40%.

As for `CCOC(=O)c1nc(C(Cl)(Cl)Cl)n(-c2ccc(Cl)cc2Cl)n1` [fenchlorazole-ethyl, reference compound], the pest or weed control at 35 g/ha in data set [9] (setting [20]), in [9] (setting [21]), in data set [2] (setting [23]), in [2] (setting [15]), in data set [3] and in data set [4] (setting [24]) was 0% throughout. Besides, the pest or weed control at 35 g/ha in [4] (setting [16]), in data set [5] (setting [25]), in data set [5] (setting [17]), in data set [7] (setting [26]), in data set [7] (setting [18]) and in data set [8] (setting [27]) was 0% in each case. Besides, the pest or weed control at 35 g/ha in [8] (setting [19]) and in [10] was 0% in each case. Besides, the plant injury at 35 g/ha in data set [1] (setting [22]) and in data set [1] (setting [14]) was 0% throughout. Moreover, in data set [12] (rated after 20-22 d), the “% visual injury, Obs, CYPES” value amounted to 0%. For the same compound, in data set [12] (scored 20-22 d), the “Obs, % visual injury, CYPES” value was found to be 0%. Moreover, the “Obs, % visual injury, EPHHL” value in data set [3] is 0%. Besides, the “% visual injury, Obs, SORVU” value in data set [11] (rated after 20-22 d) is recorded as 0%. The “Obs, % visual injury, SORVU” value in data set [11] is given as 0%. Besides, in [13] (rated after 20-22 d), the “% visual injury, Obs, SETFA” value is 0%. Further, the “Obs, % visual injury, SETFA” value in data set [13] (scored 20-22 d) is recorded as 0%.
